Experimental data taken from patent US8841285B2, “Potent immunosuppressive agents, derivatives and uses” (priority 2002, dated 2014).
Where two headings read alike, the source gives them in different places.

Experiments:
[1] = tested on: IL-2 promoter luciferase reporter in stimulated Jurkat T cells; assay: IL-2 reporter gene assay (transfected Jurkat cells); type: cell-based
Description: The ability of these derivatives to inhibit T cell receptor-mediated IL-2 production was analyzed using an IL-2 reporter gene assay. In this assay, a plasmid encoding a reporter gene (luciferase) under the control of the IL-2 promoter was first introduced into Jurkat T cells by transfection. The transfected Jurkat T cells are then stimulated with two pharmacological agents, phorbol myristyl acetate (PMA), which activates protein kinase C, and inonmycin, which allows calcium ion to enter T cells to activate calmodulin and calcineurin. Together, PMA and ionomycin recapitulate T cell receptor signaling, leading to the activation of the luciferase reporter gene by activating the IL-2 promoter. The ability of PatA and its analogs to block T cell receptor-mediated IL-2 expression was measured by their effects on this reporter gene assay. Su, B., et a., Cell 1994, 77, 727-736.

stability in CDCl3 = type: physicochemical; settings: CDCl3, 25° C.
cancer cell lines = assay: cell proliferation assay ([3H]-thymidine incorporation), cancer cell lines; type: cell-based
Description: Cell Proliferation Assay. 1×10^5 of indicated cells in each well of a 96-well plate were treated with indicated compounds for 24 h followed by addition of 0.11 μCi of [^3H]-thymidine (6.7 Ci/mmol) per well for 6 h, followed by harvesting to GF/C filtermats using a cell harvester. Filtermats were air-dried and scintillation counted. IC50s were determined from quadruplicate data readings and curve-fitting analysis.

[2] = tested on: protein synthesis in HeLa S3 cells; assay: metabolic labelling, protein synthesis ([35S]-methionine/cysteine); type: cell-based
Description: (§1) Metabolic Labelling. About 5000 HeLa S3 cells per well in 96-well plates were cultured overnight in duplicate. One set of plates were washed twice with, then incubated for 20 min in Met and Cys free medium, then exchanged for labeling medium (RPMI 1640 with 10% FBS dialyzed in PBS overnight, and 0.15 mCi/ml [^35S]-Met and [^35S]-Cys) with indicated compounds and final volume of 100 μl per well. After 1 h or 3 h incubation, and two washes with ice-cold PBS, cells were lysed in RIPA buffer, under agitation for 30 min at 4° C. 5 μl of lysate from each well was combined with 25 μl of 1 mg/ml BSA, and added to 96 well plates, followed by addition of 150 μl of 5% TCA in ethanol and incubated at 4° C. for 30 min. Filtration was performed on a vacuum manifold as per manufacturer's instructions with 2 washes of 5% TCA in ethanol, then twice with 100% ethanol. After air-drying, scintillation counting was performed. For the second set, replacement media contained […] [^3H]-uridine and indicated compound, and incubated for 1 or 3 h. Remaining procedure was identical to cell proliferation assay.

[3] = tested on: RNA synthesis in HeLa S3 cells; assay: metabolic labelling, RNA synthesis ([3H]-uridine); type: cell-based
Description: as §1

eIF4A = target: T1, eIF4A (Homo sapiens, UniProt P60842); assay: B-PatA streptavidin pull-down competition; type: binding; settings: RKO cell lysate, pre-incubation with competitor
T1 construct: Cell lysates from RKO cells were prepared as previously described; endogenous in cells; host or cells: RKO cell lysate
Description: Streptavidin-agarose Pulldown with B-PatA. Cell lysates from RKO cells were prepared as previously described (Griffith et al., 1997). HeLa lysates were prepared in buffer: 10 mM HEPES-OH, pH 7.6, 10 mM KC2H3O2, and 0.5 mM MgC2H3O2. RRL and WGE were diluted about 12 fold using HeLa lysate buffer. All pulldowns included protease inhibitors. Streptavidin-beads were pre-incubated with 10 mg/ml BSA in buffer for 1 h at 4° C. with mixing. Equal aliquots of lysate (200 μl) were incubated with DMSO or PatA analog for 1 h at 4° C. with mixing, followed by addition of DMSO or B-PatA and incubation for 2 h. Each sample was combined with equal amounts of pre-blocked beads and incubated for 1 h at 4° C. Beads were washed with 3 ml of buffer, boiled in SDS-PAGE loading buffer and analyzed by SDS-PAGE and silver-staining or immunoblotting.

eIF4A-eIF4B = target: T2, eIF4A-eIF4B (Homo sapiens, UniProt P60842); assay: 6XHis-eIF4AI pulldown, eIF4A-eIF4B interaction; type: binding; settings: HeLa lysate; PatA at 100 μM
T2 construct: The entire ORF of human eIF4AI was ligated in-frame into the BamHI and HindIII sites of the pET-28a expression vector; made in house; host or cells: bait from E. coli BL21(DE3); eIF4B endogenous in HeLa lysate
Description: 6XHis-eIF4AI pulldown, Co-immunoprecipitation, and m^7GTP-Sepharose pulldown. For 6XHis-eIF4AI pulldowns, HeLa lysates were prepared as described above. Equal aliquots (200 μl) of lysate were incubated with PatA analogs or DMSO and 8.5 μg of 6XHis-eIF4AI overnight at 4° C., followed by addition of Ni-NTA resin for 1 h, then resin was washed with 3 ml buffer, and boiled in SDS-PAGE loading buffer followed by SDS-PAGE and immunoblotting with indicated antibodies. For co-immunoprecipitation, 293T cells with vector control or pcDNA3-Flag-4B lysates were prepared by pipetting in: 20 mM HEPES, pH 7.4, 100 mM KCl, 0.5% Triton-X-100, 20% glycerol, protease inhibitor and 15 μg/ml RNAse A followed by clearing at 13 000 g (10 min). For DMDA-PatA treated samples, lysis and wash buffers also contained 100 nM DMDA-PatA. Anti-Flag antibody was incubated overnight at 4° C., followed by addition of Protein G beads for 4 h. Beads were washed 3× with 500 μl buffer, boiled in SDS-PAGE loading buffer followed by SDS-PAGE and immunoblotting. m^7GTP-Sepharose was performed as described (Yoder-Hill et al., 1993) with modifications. 30 μl RRL was incubated with DMSO or DMDA-PatA at room temperature for 30 min, diluted with buffer supplemented with DMSO or DMDA-PatA (20 nM), then combined with 50 μl beads for 3 h at 4° C. followed by 4 washes with 1 ml buffer. […]

HeLa cells = type: cell-based
[4] = tested on: mixed lymphocyte reaction; settings: read-out: IC50 in MLR (mixed lymphocyte reaction) assay; cited from earlier work
skin graft = settings: cited from earlier work

T1 sequence (P60842 2-406): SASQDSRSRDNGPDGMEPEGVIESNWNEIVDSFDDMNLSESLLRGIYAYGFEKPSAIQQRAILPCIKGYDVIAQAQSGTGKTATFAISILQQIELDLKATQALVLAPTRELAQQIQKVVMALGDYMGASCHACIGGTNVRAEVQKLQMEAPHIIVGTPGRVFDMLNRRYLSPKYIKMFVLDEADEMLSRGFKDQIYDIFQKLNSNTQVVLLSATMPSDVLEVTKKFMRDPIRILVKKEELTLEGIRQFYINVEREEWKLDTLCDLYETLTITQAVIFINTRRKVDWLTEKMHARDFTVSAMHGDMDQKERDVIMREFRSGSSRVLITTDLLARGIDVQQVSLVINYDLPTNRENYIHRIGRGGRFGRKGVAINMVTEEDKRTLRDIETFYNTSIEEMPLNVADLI
T2 sequence (P60842 whole entry): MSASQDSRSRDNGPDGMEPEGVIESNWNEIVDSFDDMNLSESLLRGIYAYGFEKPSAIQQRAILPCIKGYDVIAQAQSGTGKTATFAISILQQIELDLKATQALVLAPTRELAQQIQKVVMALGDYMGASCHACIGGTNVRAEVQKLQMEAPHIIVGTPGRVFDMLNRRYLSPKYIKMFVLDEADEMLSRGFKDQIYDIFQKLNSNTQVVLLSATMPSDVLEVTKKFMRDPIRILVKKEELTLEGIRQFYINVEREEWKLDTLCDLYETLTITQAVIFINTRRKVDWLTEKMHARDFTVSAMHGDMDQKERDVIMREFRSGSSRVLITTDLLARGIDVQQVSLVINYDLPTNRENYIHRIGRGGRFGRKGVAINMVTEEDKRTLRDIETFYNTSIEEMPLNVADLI
T2 sequence (P23588 whole entry partner): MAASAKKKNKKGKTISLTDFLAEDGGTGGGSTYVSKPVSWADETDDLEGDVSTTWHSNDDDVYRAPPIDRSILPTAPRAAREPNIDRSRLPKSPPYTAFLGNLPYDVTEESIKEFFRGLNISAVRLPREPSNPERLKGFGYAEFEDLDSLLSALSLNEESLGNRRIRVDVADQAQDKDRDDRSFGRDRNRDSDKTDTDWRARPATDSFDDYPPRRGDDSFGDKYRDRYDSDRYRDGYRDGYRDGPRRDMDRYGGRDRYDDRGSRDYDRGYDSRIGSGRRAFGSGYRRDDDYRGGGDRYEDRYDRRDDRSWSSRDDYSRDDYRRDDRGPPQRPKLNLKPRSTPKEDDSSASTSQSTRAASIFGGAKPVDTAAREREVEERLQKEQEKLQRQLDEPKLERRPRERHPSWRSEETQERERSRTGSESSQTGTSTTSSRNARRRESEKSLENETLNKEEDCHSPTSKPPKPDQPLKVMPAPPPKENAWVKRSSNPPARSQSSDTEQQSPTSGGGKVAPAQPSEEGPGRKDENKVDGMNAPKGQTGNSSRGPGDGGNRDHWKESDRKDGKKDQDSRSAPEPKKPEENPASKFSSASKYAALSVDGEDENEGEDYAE

SMILES	IC50 ([1]; stimulated Jurkat T cells, listed as native pateamine A, read-out: IC50, inhibition of IL-2 production / IL-2 reporter gene) [nM]	IC50 ([1]; stimulated Jurkat T cells, read-out: IC50, inhibition of IL-2 production / IL-2 reporter gene) [nM]	decomposes in CDCl3 (stability in CDCl3) [min]	IC50 (cancer cell lines; all cancer cell lines (FIG. 12), read-out: IC50, inhibition of proliferation) [nM]	IC50 ([2]; 1 h treatment, read-out: IC50, inhibition of protein synthesis) [nM]	effect on RNA synthesis [3]	competition with B-PatA for eIF4A binding (eIF4A)	effect on eIF4A-eIF4B interaction (eIF4A-eIF4B)	stress granule formation (HeLa cells)	IC50 [4] [nM]	activity in skin graft rejection assay (skin graft; all doses)	toxicity (skin graft; at high doses) [%]	survival period of the skin graft (skin graft; mouse skin graft rejection) [days]	toxicity (skin graft; other dose levels)	IC50 ([1]; stimulated Jurkat T cells, listed as DMDA PatA 3, read-out: IC50, inhibition of IL-2 production / IL-2 reporter gene) [nM]	IC50 ([1]; stimulated Jurkat T cells, listed as DMDA PatA, read-out: IC50, inhibition of IL-2 production / IL-2 reporter gene) [nM]	IC50 ([1]; transfected Jurkat cells, same population of Jurkat T cells, read-out: IC50) [nM]	stable in CDCl3 (stability in CDCl3)	activity in cell proliferation assays (cancer cell lines)	effect on protein synthesis [2]
CC(/C=C/C(C)=C/[C@@H]1Cc2nc(cs2)[C@@H](C)C[C@@H](N)CC(=O)O[C@@H](C)C/C(C)=C/C=C\C(=O)O1)=C\CN(C)C [Pat A (1), Pateamine A]	4.01 ± 0.94	4 ± 0.9	< 10	< 1	3.3	inhibitory effect on RNA synthesis	effectively competed away	increase in amount of eIF4B observed	capable of inducing stress granule formation	2.6	All doses were active	17	15	no toxicity	–	–	–	–	–	–
CC(/C=C/C(C)=C/[C@@H]1Cc2nc(cs2)CCCCC(=O)O[C@@H](C)C/C(C)=C/C=C\C(=O)O1)=C\CN(C)C [compound 3, desmethyl, desamino-pateamine A]	–	–	–	–	–	secondary effect on RNA synthesis	competitive	enhancement of eIF4A-eIF4B interaction	–	–	–	–	–	–	0.8 ± 0.3	0.81 ± 0.27	0.808	3-4 weeks	retain most of the activity of PatA	inhibited protein synthesis
